# In the supplement of paper PMC6045584:
# ± gives the standard deviation of the averaged measurements.
# Columns and labels:
# [1] = compound: T1, Oc1nc(-c2ccc(C(F)(F)F)cc2)nc2c1CSCC2 [XAV-939]; experiment: surviving fraction relative to DMSO-only wells; higher = less growth inhibition; settings: exposure time: 5 days
# In short: (§1)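 Viability values are CellTiter-Glo luminescence readings, given as surviving fraction against the median of DMSO-only wells. The readings were taken after 10 minutes at room temperature, following five days of continuous exposure to inhibitors at 0.5, 1, 5, 10, 50, 100, 500 and 1000 nM that began 24 hours after log-phase tumour cell lines were seeded at 250–500 cells per well in 384-well plates. Every line was screened three times and kept only if replicate Pearson r >0.7 and median Z' >0.3.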
# [2] = compound: CNCc1ccc(-c2[nH]c3cc(F)cc4c3c2CCNC4=O)cc1; experiment: as above; settings: exposure time: 5 days
# In short: as §1
# [3] = compound: T1, XAV-939; experiment: area under dose-response curve of surviving fraction (unscaled, Aref=0) (surviving fraction x log10(nM)); higher = more resistant; settings: exposure time: 5 days; dose range 0.5-1000 nM
# In short: (§2)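 Three screens per tumour cell line were run in 384-well plates at eight inhibitor concentrations from 0.5 to 1000 nM over five days. Surviving fractions, from CellTiter-Glo luminescence normalised to DMSO-only wells, were fitted with 3-parameter logistic curves in the drc R package. The reported area under the curve is the unscaled activity area. It spans log10 dose, and Aref is 0.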
# [4] = compound: CNCc1ccc(-c2[nH]c3cc(F)cc4c3c2CCNC4=O)cc1; experiment: as above; settings: exposure time: 5 days; dose range 0.5-1000 nM
# In short: as §2
# [5] = compound: O=C(c1cc(Cc2n[nH]c(=O)c3ccccc23)ccc1F)N1CCN(C(=O)C2CC2)CC1 [OLAPARIB]; experiment: as above; settings: exposure time: 5 days; dose range 0.5-1000 nM
# In short: as §2
Test System,surviving fraction ([1]; 0.5 nM),surviving fraction ([1]; 1 nM),surviving fraction ([1]; 5 nM),surviving fraction ([1]; 10 nM),surviving fraction ([1]; 50 nM),surviving fraction ([1]; 100 nM),surviving fraction ([1]; 500 nM),surviving fraction ([1]; 1000 nM),surviving fraction ([2]; 0.5 nM),surviving fraction ([2]; 1 nM),surviving fraction ([2]; 5 nM),surviving fraction ([2]; 10 nM),surviving fraction ([2]; 50 nM),surviving fraction ([2]; 100 nM),surviving fraction ([2]; 500 nM),surviving fraction ([2]; 1000 nM),area under dose-response curve [3],area under dose-response curve [4],area under dose-response curve [5]
SG28 HEADNECK,1.01 ± 0.11,1.11 ± 0.095,0.981 ± 0.083,0.967 ± 0.11,1.02 ± 0.14,0.958 ± 0.07,0.912 ± 0.075,0.91 ± 0.058,1.09 ± 0.1,0.995 ± 0.011,0.953 ± 0.012,1 ± 0.073,0.763 ± 0.056,0.723 ± 0.046,0.798 ± 0.086,0.76 ± 0.12,3.21,–,–
SG31 HEADNECK,1.02 ± 0.12,1.13 ± 0.1,1.12 ± 0.28,1.02 ± 0.046,0.985 ± 0.021,0.853 ± 0.19,0.745 ± 0.055,0.747 ± 0.037,1.31 ± 0.25,1.14 ± 0.13,1.11 ± 0.15,1.12 ± 0.092,0.922 ± 0.12,0.845 ± 0.061,0.929 ± 0.12,0.947 ± 0.09,3.04,3.16,3.18
SG32 HEADNECK,0.996 ± 0.26,1.02 ± 0.092,1.66 ± 1.1,1.13 ± 0.1,1.02 ± 0.12,1.08 ± 0.13,0.721 ± 0.17,0.603 ± 0.034,0.993 ± 0.27,1.01 ± 0.2,0.984 ± 0.17,1.02 ± 0.035,0.704 ± 0.061,0.716 ± 0.14,0.682 ± 0.075,0.566 ± 0.17,3.64,2.77,–
SIHA CERVIX,1.02 ± 0.045,1.05 ± 0.067,1.05 ± 0.084,1.16 ± 0.13,1.1 ± 0.044,1.19 ± 0.025,1 ± 0.063,0.974 ± 0.046,0.984 ± 0.028,1.06 ± 0.13,1.09 ± 0.03,1.01 ± 0.035,0.907 ± 0.064,0.934 ± 0.023,1.03 ± 0.021,0.832 ± 0.037,3.55,3.29,–
SJSA1 BONE,1.1 ± 0.061,1.04 ± 0.053,1.06 ± 0.037,1.12 ± 0.055,1.16 ± 0.06,1.18 ± 0.037,1.07 ± 0.071,1.08 ± 0.014,1.35 ± 0.059,1.7 ± 0.1,1.6 ± 0.045,1.8 ± 0.1,1.7 ± 0.073,1.76 ± 0.059,1.65 ± 0.017,1.74 ± 0.068,3.64,5.61,–
SKBR3 BREAST,1.07 ± 0.17,0.943 ± 0.089,1.04 ± 0.16,0.898 ± 0.054,1.11 ± 0.065,1.02 ± 0.1,0.854 ± 0.14,0.772 ± 0.053,0.907 ± 0.11,0.895 ± 0.12,0.9 ± 0.14,0.841 ± 0.11,0.703 ± 0.1,0.813 ± 0.052,0.733 ± 0.14,0.734 ± 0.026,–,2.69,3.09
SUM44 BREAST,1.02 ± 0.059,1.05 ± 0.051,1.05 ± 0.02,1.06 ± 0.044,1.08 ± 0.045,1.1 ± 0.025,1.07 ± 0.023,1.12 ± 0.06,0.927 ± 0.097,0.981 ± 0.098,1.01 ± 0.14,1.02 ± 0.11,0.841 ± 0.088,0.911 ± 0.027,0.892 ± 0.061,0.896 ± 0.042,3.52,3.09,3.02
VP229 BREAST,1.3 ± 0.093,1.34 ± 0.056,1.37 ± 0.14,1.23 ± 0.045,1.3 ± 0.075,1.41 ± 0.22,1.33 ± 0.26,1.3 ± 0.075,1.15 ± 0.18,1.01 ± 0.14,1.04 ± 0.058,1.01 ± 0.12,0.954 ± 0.042,0.848 ± 0.076,0.823 ± 0.05,0.917 ± 0.067,4.36,3.13,–
ZR751 BREAST,0.873 ± 0.048,0.925 ± 0.18,0.869 ± 0.092,0.987 ± 0.03,0.683 ± 0.082,0.762 ± 0.15,0.69 ± 0.052,0.685 ± 0.036,0.991 ± 0.15,0.962 ± 0.049,0.981 ± 0.075,1.1 ± 0.11,0.873 ± 0.056,0.903 ± 0.075,0.823 ± 0.037,0.709 ± 0.12,2.68,3.07,3.57
